In patent US4229371A, “Ureylene naphthalene sulfonic acid intermediates” (American Cyanamid Company, priority 1978, dated 1980):
Structures can show the parent of a compound that is named as a salt. Where two headings read alike, the source gives them in different places.

Assays:
[1] = system: shunt pathway activated by cobra venom factor; assay: Test, Code 036 (C-Shunt inhibitor); assay type: cell-based, human; conditions: higher well number indicates higher activity
From the text: (§1) An active inhibitor protects C2 from C1 and C4; (ii) Test, Code 035 (C3-C9 inhibitor)--This test determines the ability of the late components of human complement (C3-C9) to lyse EAC 142 in the presence of appropriate dilutions of the test compound. An active inhibitor protects EAC 142 from lysis by human C3-C9; (iii) Test, Code 036 (C-Shunt inhibitor)--In this test human erythrocytes rendered fragile are lysed in autologous serum via the shunt pathway activated by cobra venom factor in the presence of appropriate dilutions of the test compound. Inhibition of the shunt pathway results in failure of lysis; (iv) Forssman Vasculitis Test--Here, the well known complement dependent lesion, Forssman vasculitis, is produced in guinea pigs by intradermal injection of rabbit anti-Forssman antiserum. The lesion is measured in terms of diameter, edema and hemorrhage and the extent to which a combined index of these is inhibited by prior intraperitoneal injection of the test compound at 200 mg/kg is then reported, unless otherwise stated; (v) Forssman Shock Test--Lethan shock is produced in guinea pigs by an i.v. injection of anti-Forssman antiserum and the harmonic mean death time of treated guinea pigs is compared with that of simultaneous controls; (vi) Complement Level Reduction Test--In this test, the above dosed guinea pigs, or others, are bled for serum and the complement level is determined in undiluted serum by the capillary tube method of U.S. Pat. No. 3,876,376 and compared to undosed control guinea pigs; and (vii) Cap 50 Test--Here, appropriate amounts of the test compound are added to a pool of guinea pig serum in vitro, after which the undiluted serum capillary tube assay referred to above is run. The concentration of compound inhibiting 50% is reported.
(§2) *Code designation for tests employed as referred herein.
(§3) **Activity in wells a serial dilution assay. Higher well number indicates
(§4) higher activity. The serial dilutions are twofold.

activated human C1 = target: T1, activated human C1 (Homo sapiens, UniProt P09871); assay: Test, Code 026 (C1 inhibitor); assay type: biochemical; conditions: higher well number indicates higher activity
T1 construct: test of C2 destruction in presence of C4
T1 sequence (P09871 16-688): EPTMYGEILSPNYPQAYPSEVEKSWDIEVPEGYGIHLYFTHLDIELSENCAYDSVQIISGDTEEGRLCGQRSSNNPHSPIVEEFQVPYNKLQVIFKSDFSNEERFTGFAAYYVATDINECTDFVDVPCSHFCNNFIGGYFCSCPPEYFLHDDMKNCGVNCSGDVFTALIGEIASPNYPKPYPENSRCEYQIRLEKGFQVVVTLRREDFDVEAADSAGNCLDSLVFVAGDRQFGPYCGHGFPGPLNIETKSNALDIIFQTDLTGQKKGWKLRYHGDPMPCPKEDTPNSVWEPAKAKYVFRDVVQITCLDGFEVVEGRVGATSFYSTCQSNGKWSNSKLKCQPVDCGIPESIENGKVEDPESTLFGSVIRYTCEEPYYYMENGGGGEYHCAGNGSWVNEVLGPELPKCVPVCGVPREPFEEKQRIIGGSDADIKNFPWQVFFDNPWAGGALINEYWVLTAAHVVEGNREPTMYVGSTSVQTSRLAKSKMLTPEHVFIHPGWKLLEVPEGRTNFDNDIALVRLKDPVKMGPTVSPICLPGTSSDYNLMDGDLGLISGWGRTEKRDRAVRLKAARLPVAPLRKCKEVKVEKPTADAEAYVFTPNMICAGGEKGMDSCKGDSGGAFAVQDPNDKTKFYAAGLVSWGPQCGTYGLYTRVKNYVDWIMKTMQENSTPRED
T1 sequence (P00736 18-705 partner): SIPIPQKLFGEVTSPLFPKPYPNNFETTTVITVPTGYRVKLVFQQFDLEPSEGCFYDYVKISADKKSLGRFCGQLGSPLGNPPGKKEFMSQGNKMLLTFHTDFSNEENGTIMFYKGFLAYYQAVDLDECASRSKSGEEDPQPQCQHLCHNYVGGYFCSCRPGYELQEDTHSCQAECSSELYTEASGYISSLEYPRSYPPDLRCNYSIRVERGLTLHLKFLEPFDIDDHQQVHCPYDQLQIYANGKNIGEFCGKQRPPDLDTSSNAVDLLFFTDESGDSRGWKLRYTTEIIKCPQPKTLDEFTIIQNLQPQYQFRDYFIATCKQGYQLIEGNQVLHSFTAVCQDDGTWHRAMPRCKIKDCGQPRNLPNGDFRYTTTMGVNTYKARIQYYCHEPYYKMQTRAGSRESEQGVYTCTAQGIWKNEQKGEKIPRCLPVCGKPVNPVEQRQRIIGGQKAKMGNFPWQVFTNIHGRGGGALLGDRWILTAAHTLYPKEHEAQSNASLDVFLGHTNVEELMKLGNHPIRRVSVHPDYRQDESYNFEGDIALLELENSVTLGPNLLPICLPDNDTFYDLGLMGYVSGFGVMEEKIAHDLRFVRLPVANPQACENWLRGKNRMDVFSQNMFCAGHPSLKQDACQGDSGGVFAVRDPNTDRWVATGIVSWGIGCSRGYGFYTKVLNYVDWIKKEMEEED
T1 sequence (P02745 23-245 partner): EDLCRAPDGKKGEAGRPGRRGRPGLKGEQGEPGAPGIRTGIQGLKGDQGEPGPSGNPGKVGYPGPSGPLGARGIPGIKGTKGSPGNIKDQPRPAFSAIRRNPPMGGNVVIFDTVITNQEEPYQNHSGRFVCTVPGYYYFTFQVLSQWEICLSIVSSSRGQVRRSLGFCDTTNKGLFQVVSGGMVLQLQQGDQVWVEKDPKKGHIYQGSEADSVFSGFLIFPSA
T1 sequence (P02746 28-253 partner): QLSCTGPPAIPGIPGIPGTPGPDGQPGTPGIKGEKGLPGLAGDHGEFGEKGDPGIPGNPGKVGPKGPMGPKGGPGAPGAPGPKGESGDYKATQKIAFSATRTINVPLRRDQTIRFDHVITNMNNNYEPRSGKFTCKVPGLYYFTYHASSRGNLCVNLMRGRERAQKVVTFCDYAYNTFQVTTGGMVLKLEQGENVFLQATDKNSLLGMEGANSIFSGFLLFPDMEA
T1 sequence (P02747 29-245 partner): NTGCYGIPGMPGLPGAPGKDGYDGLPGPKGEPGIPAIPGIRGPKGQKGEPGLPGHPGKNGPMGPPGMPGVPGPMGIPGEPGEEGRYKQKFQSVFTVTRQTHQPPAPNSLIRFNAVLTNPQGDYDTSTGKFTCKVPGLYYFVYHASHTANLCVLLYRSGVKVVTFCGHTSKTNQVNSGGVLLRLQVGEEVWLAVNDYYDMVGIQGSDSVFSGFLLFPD
From the text: as §1, §2, §3, §4

[2] = system: late components of human complement (C3-C9); assay: Test, Code 035 (C3-C9 inhibitor); assay type: cell-based; conditions: higher well number indicates higher activity
From the text: as §1, §2, §3, §4

whole complement = assay: In vivo activity, complement level reduction in serum of dosed guinea pigs (capillary tube assay); design: species or system guinea pig
complement system = conditions: in words; literature; cited from earlier work
[3] = in words; literature; cited from earlier work
[4] = system: total hemolytic complement activity; conditions: human serum, in vitro; in words; cited from earlier work
[5] = system: total hemolytic complement activity; conditions: human serum; in words; cited from earlier work
[6] = Table I, activity in wells, twofold serial dilution assay
[7] = Table II (intermediates), twofold serial dilution
[8] = Table II, intraperitoneal, time 30 min.
[9] = Table II, intraperitoneal, time 60 min.
[10] = Table II, intraperitoneal, time 120 min.
[11] = Table II, intravenous, time 2 min.
[12] = Table II, intravenous, time 30 min.
[13] = Table II, intravenous, time 120 min.

## O=C(Nc1ccc(C(=O)Nc2cc(C(=O)Nc3cc(S(=O)(=O)O)cc4cc(S(=O)(=O)O)cc(S(=O)(=O)O)c34)cc(C(=O)Nc3cc(S(=O)(=O)O)cc4cc(S(=O)(=O)O)cc(S(=O)(=O)O)c34)c2)c(S(=O)(=O)O)c1)Nc1ccc(C(=O)Nc2cc(C(=O)Nc3cc(S(=O)(=O)O)cc4cc(S(=O)(=O)O)cc(S(=O)(=O)O)c34)cc(C(=O)Nc3cc(S(=O)(=O)O)cc4cc(S(=O)(=O)O)cc(S(=O)(=O)O)c34)c2)c(S(=O)(=O)O)c1 [8,8',8",8'"Ureylenebis[(2-sulfo-4,1-phenylene)carbonylimino-s-phenenylbis(carbonylimino)]tetra-1,3,6-naphthalenetrisulfonic acid tetradecyl sodium salt]
[1]; [6]
  Shunt Inhibition 036 Wells: +5 Wells
Activated human C1; [6]
  Cl 026 Wells: +8 Wells
[2]; [6]
  C-Late 035 Wells: +5 Wells
Whole complement; Table I, intravenous, 200 mg/kg, time 2 minutes
  In Vivo Activity (Guinea Pig) % Inhibition: -97%
Whole complement; Table I, intravenous, 200 mg/kg, time 30 minutes
  In Vivo Activity (Guinea Pig) % Inhibition: -96%
Whole complement; Table I, intravenous, 200 mg/kg, time printed 20 minutes
  In Vivo Activity (Guinea Pig) % Inhibition: -95%

## Nc1ccc(C(=O)Nc2cc(C(=O)Nc3cc(S(=O)(=O)O)cc4cc(S(=O)(=O)O)cc(S(=O)(=O)O)c34)cc(C(=O)Nc3cc(S(=O)(=O)O)cc4cc(S(=O)(=O)O)cc(S(=O)(=O)O)c34)c2)c(S(=O)(=O)O)c1 [8,8'-[5-(4-Amino-2-sulfobenzamido)-1,3-phenylenedicarbonylimino]di-1,3,6-naphthalenetrisulfonic acid heptasodium salt]
[1]; [7]
  Shunt Inhibition 036 Wells: +2 Wells
Activated human C1; [7]
  Cl 026 Wells: +6 Wells
[2]; [7]
  C-Late 035 Wells: +3 Wells
Whole complement; [8]
  In Vivo Activity (Guinea Pig) % Inhibition: -45%
Whole complement; [9]
  In Vivo Activity (Guinea Pig) % Inhibition: -61%
Whole complement; [10]
  In Vivo Activity (Guinea Pig) % Inhibition: -73%
Whole complement; [11]
  In Vivo Activity (Guinea Pig) % Inhibition: -98%
Whole complement; [12]
  In Vivo Activity (Guinea Pig) % Inhibition: -79%
Whole complement; [13]
  In Vivo Activity (Guinea Pig) % Inhibition: -45%

## O=C(Nc1cc(S(=O)(=O)O)cc2cc(S(=O)(=O)O)cc(S(=O)(=O)O)c12)c1cc(NC(=O)c2ccc([N+](=O)[O-])cc2S(=O)(=O)O)cc(C(=O)Nc2cc(S(=O)(=O)O)cc3cc(S(=O)(=O)O)cc(S(=O)(=O)O)c23)c1 [8,8'-[5-(4-Nitro-2-sulfobenzamido)-1,3-phenylenedicarbonylimino]di-1,3,6-naphthalenetrisulfonic acid heptasodium salt]
[1]; [7]
  Shunt Inhibition 036 Wells: +1 Wells
Activated human C1; [7]
  Cl 026 Wells: +4 Wells
[2]; [7]
  C-Late 035 Wells: +2 Wells
Whole complement; [8]
  In Vivo Activity (Guinea Pig) % Inhibition: -40%
Whole complement; [9]
  In Vivo Activity (Guinea Pig) % Inhibition: -55%
Whole complement; [10]
  In Vivo Activity (Guinea Pig) % Inhibition: -74%
Whole complement; [11]
  In Vivo Activity (Guinea Pig) % Inhibition: -91%
Whole complement; [12]
  In Vivo Activity (Guinea Pig) % Inhibition: -59%
Whole complement; [13]
  In Vivo Activity (Guinea Pig) % Inhibition: -51%

## Cc1ccc(C(=O)Nc2ccc(S(=O)(=O)O)c3cc(S(=O)(=O)O)cc(S(=O)(=O)O)c23)cc1NC(=O)c1cccc(NC(=O)Nc2cccc(C(=O)Nc3cc(C(=O)Nc4ccc(S(=O)(=O)O)c5cc(S(=O)(=O)O)cc(S(=O)(=O)O)c45)ccc3C)c2)c1 [Suramin]
Complement system
  anticomplementary effect / complement inhibition: competitive inhibitor of the complement system

## Nc1ccc2cc(S(=O)(=O)O)cc(O)c2c1N=Nc1ccc(NC(=O)Nc2ccc(N=Nc3c(N)ccc4cc(S(=O)(=O)O)cc(O)c34)c(S(=O)(=O)O)c2)cc1S(=O)(=O)O [chlorazol fast pink, 3,3'-ureylenebis-[6-(2-amino-8-hydroxy-6-sulfo-1-naphthylazo)]benzenesulfonic acid, tetrasodium salt]
Complement system
  anticomplementary effect / complement inhibition: anticomplementary effect

## NCCCCCC(=O)O [epsilon-aminocaproic acid]
[3]
  success in the treatment of hereditary angioneurotic edema: used with success in the treatment of hereditary angioneurotic edema

## NC[C@H]1CC[C@H](C(=O)O)CC1 [tranexamic acid]
[3]
  success in the treatment of hereditary angioneurotic edema: used with success in the treatment of hereditary angioneurotic edema

## heparin
Complement system
  anticomplementary effect / complement inhibition: anticomplementary effect

## pentosanpoly-sulfoester
[4]
  anticomplementary activity (reduction in total hemolytic complement activity): anticomplementary activity on human serum both in vitro and in vivo
[5]
  anticomplementary activity (reduction in total hemolytic complement activity): anticomplementary activity on human serum both in vitro and in vivo
